Source: patent US11560381B1, “Compounds and uses thereof” (Foghorn Therapeutics Inc., priority 2019, dated 2023)
Read-outs that look alike come from different tables or passages of the source. Blank lines part the entries; values can stand above or below the compound they belong to.

What was measured:
[1] = tested on: synovial sarcoma cell lines (SYO1, Yamato, HS-SY-II, ASKA); assay: Growth of synovial sarcoma cell lines (IncuCyte confluency, crystal violet, colony imaging); assay type: cell-based; conditions: 1 μM or indicated concentrations, FIGS. 5, 6, 7
Description: Cells were treated with DMSO or the BRD9 degrader, Compound 1, at indicated concentrations, and proliferation was monitored from day 7 to day 14 by measuring confluency overtime using an IncuCyte live cell analysis system (FIG. 5). Growth medium and compounds were refreshed every 3-4 days.
(§1) Cells were seeded into 12-well plates and treated with DMSO, 1 μM BRD9 inhibitor, Compound 2 (also known as BI-7273, see Martin et al, J Med Chem. 59(10):4462-4475 (2016); see structure of Compound 2 below), or 1 μM BRD9 degrader, Compound 1.
(§2) The number of cells was optimized for each cell line. Growth medium and compounds were refreshed every 3-5 days. SYO1, Yamato, A549, 293T and HS-SY-II cells were fixed and stained at day 11. ASKA cells were fixed and stained at day 23. Staining was done by incubation with crystal violet solution (0.5 g Crystal Violet, 27 ml 37% Formaldehyde, 100 mL 10×PBS, 10 mL Methanol, 863 dH20 to 1 L) for 30 min followed by 3× washes with water and drying the plates for at least 24 h at room temperature. Subsequently plates were scanned on an Odyssey CLx Imaging system (FIG. 6).
(§3) Cells were seeded into 96-well ultra low cluster plate (Costar, #7007) in 200 μL complete media and treated at day 2 with DMSO, Staurosporin, or BRD9 degarder, Compound 1, at indicated doses (FIG. 7). Media and compounds were changed every 5 d and cell colonies were imaged at day 14.

[2] = tested on: non-synovial control cancer cell lines (RD, HCT116, Calu6); assay: Growth of non-synovial control cancer cell lines, 14-day crystal violet staining; assay type: cell-based; conditions: treated daily, day 14, FIG. 9
Description: (§4) Procedure: Cells were seeded into 6-well or 12-well plates and were treated daily with a BRD9 degrader (Compound 1), a bromo-domain BRD9 binder (Compound 2), E3 ligase binder (lenalidomide), DMSO, or staurosporin (positive control for cell killing), at indicated concentrations. The number of cells was optimized for each cell line. Growth media was refreshed every 5 days. By day 14, medium was removed, cells were washed with PBS, and stained using 500 μL of 0.005% (w/v) crystal violet solution in 25% (v/v) methanol for at least 1 hour at room temperature. Subsequently plates were scanned on an Odyssey CLx Imaging system.

[3] = tested on: synovial sarcoma cell lines (SYO1, HS-SY-II, ASKA); assay: Growth of synovial sarcoma cell lines, 14-day crystal violet staining; assay type: cell-based; conditions: for inhibition of cell growth: SYO1, HS-SY-II, ASKA, treated daily, day 14, FIG. 8
Description: as §4

[4] = tested on: non-synovial control cancer cell lines (293T, A549, G401); assay: Growth of non-synovial control cancer cell lines (crystal violet, colony imaging); assay type: cell-based; conditions: FIGS. 5, 6, 7
Description: as §1, §2, §3

[5] = target: 3×FLAG-NLuc-BRD9 (Nano luciferase-BRD9 fusion protein) in SYO-1 cells (Homo sapiens (Human), UniProt Q9H8M2); assay: SYO1 BRD9 NanoLuc degradation assay; assay type: cell-based; conditions: SYO-1 cells expressing 3×FLAG-NLuc-BRD9, 6 hours incubation, read-out: SYO1 BRD9-NanoLuc degradation IC50
Chain of 3×FLAG-NLuc-BRD9 (Nano luciferase-BRD9 fusion protein) in SYO-1 cells (Q9H8M2 whole entry, the tested form may be a part): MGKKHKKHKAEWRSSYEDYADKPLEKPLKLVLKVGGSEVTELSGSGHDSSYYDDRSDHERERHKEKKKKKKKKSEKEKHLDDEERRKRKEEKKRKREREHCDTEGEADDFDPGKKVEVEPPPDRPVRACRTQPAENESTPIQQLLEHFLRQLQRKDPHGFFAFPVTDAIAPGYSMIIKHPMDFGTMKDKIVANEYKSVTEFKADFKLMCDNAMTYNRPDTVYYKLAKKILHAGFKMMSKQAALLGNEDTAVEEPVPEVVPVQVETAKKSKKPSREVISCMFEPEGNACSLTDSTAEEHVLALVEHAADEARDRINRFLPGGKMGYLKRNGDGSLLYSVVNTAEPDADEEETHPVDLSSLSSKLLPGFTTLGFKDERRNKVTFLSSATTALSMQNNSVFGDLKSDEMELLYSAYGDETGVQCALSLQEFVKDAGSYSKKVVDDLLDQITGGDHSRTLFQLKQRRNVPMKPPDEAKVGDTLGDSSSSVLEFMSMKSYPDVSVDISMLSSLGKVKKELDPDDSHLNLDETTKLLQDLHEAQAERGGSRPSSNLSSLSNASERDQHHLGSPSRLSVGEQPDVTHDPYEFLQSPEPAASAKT
Description: Procedure: A stable SYO-1 cell line expressing 3×FLAG-NLuc-BRD9 was generated. On day 0 cells were seeded in 30 μL media into each well of 384-well cell culture plates. The seeding density was 8000 cells/well. On day 1, cells were treated with 30 nL DMSO or 30 nL of 3-fold serially DMSO-diluted compounds (10 points in duplicates with 1 μM as final top dose). Subsequently plates were incubated for 6 hours in a standard tissue culture incubator and equilibrated at room temperature for 15 minutes. Nanoluciferase activity was measured by adding 15 μL of freshly prepared Nano-Glo Luciferase Assay Reagent (Promega N1130), shaking the plates for 10 minutes and reading the bioluminescence using an EnVision reader.
Results: The Inhibition % was calculated using the following formula: % Inhibition=100×(LuMHC−Lumsample)/(LumHC−LumLC). DMSO treated cells are employed as High Control (HC) and 1 μM of a known BRD9 degrader standard treated cells are employed as Low Control (LC).

[6] = target: BRD9 bromodomain (Flag-BRD9 P133-K239) (Homo sapiens (Human), UniProt Q9H8M2); assay: BRD9 bromodomain TR-FRET competition binding assay; conditions: Table 4; 3 nM Flag-BRD9, 3.75 nM biotinylated ligand, 90 minutes at room temperature
Chain of BRD9 bromodomain (Flag-BRD9 P133-K239) (Q9H8M2 133-239): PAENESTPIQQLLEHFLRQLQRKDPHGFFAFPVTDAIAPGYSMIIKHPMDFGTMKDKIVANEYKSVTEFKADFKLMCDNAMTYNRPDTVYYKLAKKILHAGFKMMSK
Description: Procedure: His-Flag-BRD9 (P133-K239; Swiss Prot Q9H8M2; SEQ ID NO:1 mgsshhhhhhenlyfq/gdykddddkgslevlfqg/[…] […]) was cloned, expressed, purified, and then treated with TEV protease. Cleaved His tag was removed by purification. The binding of a biotinylated small molecule ligand of BRD9 was assessed via the LANCE® TR-FRET platform (PerkinElmer), and the compounds were assayed for inhibitory activity against this interaction.
A mixture of biotinylated-ligand and SureLight™ Allophycocyanin-Streptavidin (APC-SA, PerkinElmer AD0201) in 50 mM HEPES (pH 7.4), 50 mM NaCl, 1 mM TCEP (pH 7), 0.01% (v/v) Tween-20, 0.01% (w/v) bovine serum albumin was added to a white 384-well PerkinElmer Proxiplate Plus plate. DMSO or 3-fold serially diluted compounds were then added to the Proxiplate followed by addition of Flag-BRD9. After a 10-minute incubation at room temperature, Eu-W1024 anti-FLAG (PerkinElmer, AD0273) was added. The final reaction mixture that contained 3.75 nM biotinylated ligand, 3 nM Flag-BRD9, 7.5 nM SureLight™ Allophycocyanin-Streptavidin, and 0.2 nM Eu-W1024 anti-FLAG was incubated at room temperature for 90 minutes.
Results: The plates were then read on a PerkinElmer Envision plate reader to determine the ratio of emission at 665 nm over 615 nm. […]

[7] = tested on: SYO1 cells; assay: Cell cycle analysis (Click-iT Plus EdU Flow Cytometry Assay); assay type: cell-based; conditions: SYO1, 200 nM or 1 μM, 8 or 13 days, compared to DMSO and lenalidomide
Description: Procedure: SYO1 cells were treated for 8 or 13 days with DMSO, a BRD9 degrader (Compound 1) at 200 nM or 1 μM, or an E3 ligase binder (lenalidomide) at 200 nM. Compounds were refreshed every 5 days. Cell cycle analysis was performed using the Click-iT™ Plus EdU Flow Cytometry Assay (Invitrogen). The apoptosis assay was performed using the Annexin V-FITC Apoptosis Detection Kit (Sigma A9210). Assays were performed according to the manufacturer's protocol.

SMILES: COc1cc(-c2cn(C)c(=O)c3cnccc23)cc(OC)c1CN(C)C [Compound 2]
inhibition of cell growth [1]: inhibition of the growth of the cells
inhibition of cell growth [2]: did not result in inhibition of the growth
inhibition of cell growth [3]: inhibition of the growth of the cells
inhibition of cell growth [4]: does not result in inhibition of the growth

SMILES: COc1cc(-c2cn(C)c(=O)c3cnccc23)cc(OC)c1CN(C)CCCCN1CC2(CCN(c3ccc4c(c3)C(=O)N(C3CCC(=O)NC3=O)C4=O)C2)C1 (stereo not drawn) [Compound D248]
DC50 ([5]; Table 5B): 10 to 100 nM

SMILES: COc1cc(-c2cn(C)c(=O)c3cnccc23)cc(OC)c1CN1CC2(CCN(C(=O)CCOCCOc3cccc4c3C(=O)N(C3CCC(=O)NC3=O)C4=O)C2)C1 (stereo not drawn) [Compound D90]
DC50 ([5]; Table 5A): 10 to 100 nM
IC50 [6]: < 10 nM

SMILES: COc1cc(-c2cn(C)c(=O)c3cnccc23)cc(OC)c1CN(C)CC(=O)NCCOCCOCCNc1cccc2c1C(=O)N(C1CCC(=O)NC1=O)C2=O (stereo not drawn) [Compound 1]
inhibition of cell growth [1]: inhibition of the growth of the cells
inhibition of cell growth [2]: did not result in inhibition of the growth
inhibition of cell growth [3]: inhibition of the growth of the cells
growth inhibition compared among tested agents ([3]; all synovial cell lines, versus Compound 2 and lenalidomide): most significant growth inhibition in all synovial cell lines
inhibition of cell growth [4]: does not result in inhibition of the growth
numbers of cells in the S-phase of the cell cycle [7]: reduced numbers of cells in the S-phase of the cell cycle

SMILES: COc1cc(-c2cn(C)c(=O)c3cnccc23)cc(OC)c1CN1CCC(COC2CCN(C(=O)CCOCCOc3cccc4c3C(=O)N(C3CCC(=O)NC3=O)C4=O)C2)CC1 (stereo not drawn) [Compound D94]
DC50 ([5]; Table 5A): 10 to 100 nM
IC50 [6]: 10 to 100 nM

SMILES: COc1cc(-c2cn(C)c(=O)c3cnccc23)cc(OC)c1CN(C)CCCCNC1CC2(CCN(c3ccc4c(c3)C(=O)N(C3CNC(=O)CC3=O)C4=O)CC2)C1 (stereo not drawn) [Compound D247]
DC50 ([5]; Table 5B): < 10 nM

SMILES: COc1cc(-c2cn(C)c(=O)c3cnccc23)cc(OC)c1CN1CC(n2cc(COCc3ccc4c(c3)C(=O)N(C3CCC(=O)NC3=O)C4=O)nn2)C1 (stereo not drawn) [Compound D298]
DC50 ([5]; Table 5B): < 10 nM

SMILES: COc1cc(-c2cn(C)c(=O)c3cnccc23)cc(OC)c1CN1CCC2(CC1)CCN(C(=O)CCC#Cc1ccc3c(c1)C(=O)N(C1CCC(=O)NC1=O)C3=O)C2 (stereo not drawn) [Compound D220]
DC50 ([5]; Table 5B): < 10 nM

Further lines, results first:

DC50 ([5]; Table 5C): < 10 nM
SMILES: COc1cc(-c2cn(C)c(=O)c3c[nH]nc23)cc(OC)c1CN1CCC2(CC1)CN(c1ccc3c(c1)C(=O)N(C1CCC(=O)NC1=O)C3)C2 (stereo not drawn) [Compound D420]

DC50 ([5]; Table 5C): < 10 nM
SMILES: COc1cc(-c2cc(C(F)F)c(=O)n(C)c2)cc(OC)c1CN1CC(C#Cc2ccc3c(c2)C(=O)N(C2CCC(=O)NC2=O)C3)C1 (stereo not drawn) [Compound D439]

DC50 ([5]; Table 5C): < 10 nM
SMILES: COc1cc(-c2cc(C)c(=O)n(C)c2)cc(OC)c1CN1CC(C#Cc2ccc3c(c2)C(=O)N(C2CCC(=O)NC2=O)C3)C1C (stereo not drawn) [Compound D453]

DC50 ([5]; Table 5C): ≥ 1000 nM
SMILES: C/C=C/Cn1cc(-c2ccc(CN3CCN(S(=O)(=O)c4ccc5c(c4)C(=O)N(C4CCC(=O)NC4=O)C5)CC3)c(Cl)c2)n2cncc2c1=O (stereo not drawn) [Compound D464]

DC50 ([5]; Table 5C): < 10 nM
SMILES: COc1cc(-c2cc(C)c(=O)n(C)c2)cc(OC)c1CN1CC(C)(C#Cc2ccc3c(c2)C(=O)N(C2CCC(=O)NC2=O)C3)C1 (stereo not drawn) [Compound D450]

DC50 ([5]; Table 5C): < 10 nM
SMILES: COc1cc(-c2cn(C)c(=O)c3[nH]ccc23)cc(OC)c1CN1CCC2(CC1)CN(c1ccc3c(c1)C(=O)N(C1CCC(=O)NC1=O)C3)C2 (stereo not drawn) [Compound D419]
